“And” between values parts separate entries of the source, which are not always exact repeats. Equal values may be shown once.
Legend:
[1] = system: SetDB1 H3K9me3 HMTase; conditions: cited from earlier work
[2] = system: SCNT embryos; assay: Preimplantation development of SCNT embryos cultured in vitro; format: cell-based, mouse; conditions: cumulus donor cells (BDF1, female), TSA treatment 15 nM for 8 h, water or mRNA 1800 ng/μl injected
Source text: C57BL/6J female mice were mated with DBA/2J males to produce B6D2F1/J (BDF1) mice. BDF1 and CD-1 (ICR) adult females were used for the collection of recipient oocytes and embryo transfer recipients, respectively. BDF1 mice were used for the collection of donor somatic cells for the analyses of development. (C57BL/6×CAST/EiJ) F1 mice were used for the collection of donor cells for RNA-seq. E13.5 embryos harboring GOF18 delta-PE (Jackson Laboratory, 004654: Tg(Pou5f1-EGFP)2Mnn, C57BL/6J background) were used for the isolation of mouse embryonic fibroblasts (MEF). All animal experiments were approved by the Institutional Animal Care and Use Committee of Harvard Medical School.
Cumulus cells were collected from adult BDF1 females through superovulation by injecting 7.5 IU of pregnant mare serum gonadotropin (PMSG; Harbor) and 7.5 IU of human chorionic gonadotropin (hCG; Millipore). Fifteen hours after the hCG injection, cumulus-oocyte complexes (COCs) were collected from the oviducts and briefly treated with Hepes-buffered potassium simplex-optimized medium (KSOM) containing 300 U/ml bovine testicular hyaluronidase (Calbiochem #385931) to obtain dissociated cumulus cells. Sertoli cells were collected from testes of 3- to 5-day-old BDF1 male mice as described (Matoba et al., 2011). Testicular masses were incubated in PBS containing 0.1 mg/ml collagenase (Life Technologies #17104-019) for 30 min at 37° C. followed by 5 min treatment with 0.25% Trypsine with 1 mM EDTA (Life Technologies #25200-056) at room temperature. After washing for four times with PBS containing 3 mg/ml bovine serum albumin, the dissociated cells were suspended in Hepes-KSOM medium.
Primary mouse embryonic fibroblast (MEF) cells were established from GOF18 delta-PE mouse embryos at 13.5 dpc. After removal of head and all organs, minced tissue from remaining corpus was dissociated in 500 μl of 0.25% Trypsine with 1 mM EDTA for 10 min at 37° C. Cell suspension was diluted with equal amount of DMEM (Life Technologies #11995-073) containing 10% FBS and Penicillin/Streptomycin (Life Technologies #15140-022) and pipetted up and down for 20 times. The cell suspension was diluted with fresh medium and plated onto 100 mm dishes and cultured at 37° C. Two days later, MEF cells were harvested and frozen. Frozen stocks of MEF cells were thawed and used for experiments after one passage.
siRNAs against mouse Suv39h1 (Life Technologies #s74607), Suv39h2 (Life Technologies #s82300) and Setdb1 (Life Technologies #s96549) were diluted in nuclease free water at 50 μM stock solutions. siRNAs were introduced to MEFs with Lipofectamine RNAi Max (Life technologies #35050-061) following manufacturer's protocol. Briefly, 1×10^5 MEF cells were seeded onto 24-well plate (day 0; see FIG. 5A). Twenty-four hours later, […] siRNAs were transfected into MEF cells using Lipofectamine RNAi Max (day 1). Twenty-four hours after the first transfection, the culture media was changed to fresh M293T media [DMEM supplemented with 10% FBS, 0.1 mM non-essential amino acids (Life technologies #11140-050), 2 mM GlutaMAX (Life technologies #35050-079), 50 U/ml penicillin-streptomycin and 0.1 mM 2-mercaptoethanol (Life technologies #21985-023)] (day 2). On day 3, MEF cells were reseeded onto 24-well plates at the density of 1×10^5 cells. Then transfection was repeated once as described above (day 4). Forty-eight hours after the second transfection (day 6), MEF cells were used for immunostaining, RT-qPCR or SCNT.
Somatic cell nuclear transfer was carried out as described previously (Matoba et al., 2011). Briefly, recipient MII oocytes were collected from superovulated adult BDF1 females by brief treatment with 300 U/ml bovine testicular hyaluronidase (Calbiochem). Isolated MII oocytes were enucleated in Hepes-buffered KSOM medium containing 7.5 μg/ml of cytochalasin B (Calbiochem #250233). […]

[3] = system: SCNT blastocysts; assay: ntESC derivation from SCNT blastocysts; format: cell-based, mouse
Experimental: Blastocysts were denuded by acid tyrode treatment and cultured on mitomycin treated MEF feeder cells and in DMEM supplemented with 5% FBS, 10% KnockOut serum replacement (Life Technologies #10828-028), 0.1 mM non-essential amino acids, 2 mM GlutaMAX, 50 U/ml penicillin-streptomycin, 0.1 mM 2-mercaptoethanol and 2000 U leukemia inhibitory factor (LIF, Millipore #ESG1107) at 37° C. 5% CO2. Four to five days later, outgrowths from attached embryos were dissociated with 0.25% trypsin and passaged all onto new feeder cells. On the following day, the medium was replaced with N2B27-LIF media [DMEM/F12 (Life Technologies #10565-042) supplemented with 0.1 mM non-essential amino acids, 2 mM GlutaMAX, 50 U/ml penicillin-streptomycin, 0.1 mM 2-mercaptoethanol, 0.5×N2 supplement (Life technologies #17502-048), 0.5× B27 supplement (Life technologies #17504-044), […] CHIR99021 (STEMGENT #04-0004), 0.5 μM PD0325901 (STEMGENT #04-0006) and 1000 U LIF]. Five days later, expanded cells were reseeded as established ntESC.

[4] = molecular target: Suv39h2 (Homo sapiens, UniProt Q9H5I1); conditions: cited from earlier work
Chain of Suv39h2 (Q9H5I1 whole entry, species assumed): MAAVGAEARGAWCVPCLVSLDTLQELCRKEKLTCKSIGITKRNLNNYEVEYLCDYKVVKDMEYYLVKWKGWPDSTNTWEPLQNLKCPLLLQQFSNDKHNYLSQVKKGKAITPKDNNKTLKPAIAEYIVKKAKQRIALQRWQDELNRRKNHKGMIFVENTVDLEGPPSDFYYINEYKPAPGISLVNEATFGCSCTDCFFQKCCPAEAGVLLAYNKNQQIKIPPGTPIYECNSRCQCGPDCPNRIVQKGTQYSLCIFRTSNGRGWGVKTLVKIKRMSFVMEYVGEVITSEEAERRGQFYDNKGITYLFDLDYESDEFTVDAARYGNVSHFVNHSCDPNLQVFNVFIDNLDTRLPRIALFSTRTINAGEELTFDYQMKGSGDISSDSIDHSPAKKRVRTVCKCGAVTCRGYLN

[5] = cumulus donor cells (BDF1, female), TSA treatment 15 nM for 8 h, water or mRNA 1800 ng/μl injected

In the case of `Nc1nccc2c1ncn2[C@@H]1C=C(CO)[C@@H](O)[C@H]1O` [DZNep, 3-Deazaneplanocin A], the “levels of H3K27me3 and H3K9me3 (in words)” value [1] is listed as “reduced levels of both H3K27me3 and H3K9me3”.
In the case of `CC(/C=C/C(=O)NO)=C\[C@@H](C)C(=O)c1ccc(N(C)C)cc1` [TSA, trichostatin A, reference compound], the “% 4-cell per 2-cell ± SD” value [2] is reported as 72.1 ± 10.9 %, the “% blast per 2-cell ± SD” value [2] is reported as 53.8% and 53.8 ± 6.2 % and the “% cleaved per 1-cell ± SD” value [2] is reported as 98.0 ± 3.4%. For the same molecule, the “% morula per 2-cell ± SD” value [2] was 60.8 ± 6.8 %, the No. of blastocyst ([2]; ntESC derivation experiment) was 20 and the “blastocyst (% per 1-cell)” value ([2]; ntESC derivation experiment) was 51.3%. For the same molecule, the “efficiency of attachment or ntESC derivation per blastocyst, compared to control (in words)” value ([3]; SCNT blastocysts from cumulus donor cells) was “did not show any significant difference”, the “No. of blastocyst attached to feeder cells” value [3, 5] was 14 and the “No. of established ntESC lines” value [3, 5] was 8. For the same molecule, the “blastocyst attached to feeder cells (% per blast)” value [3, 5] was 70.0%, the “established ntESC lines (% per MII oocyte)” value [3, 5] was “(18.2) %” and the “established ntESC lines (% per blast)” value [3, 5] was “(40.0) %”.
In the case of `COc1cc2c(NC3CCN(C(C)C)CC3)nc(C3CCCCC3)nc2cc1OCCCN1CCCC1` [UNC0638, 2-Cyclohexyl-N-(1-isopropylpiperidin-4-yl)-6-methoxy-7-(3-(pyrrolidin-1-yl)propoxy)quinazolin-4-amine], the IC50 [4] is listed as greater than 10 µM.
